# Measurements as given in patent EP4745135A1 (Gluetacs Therapeutics (Shanghai) Co., Ltd., priority 2023, dated 2025).
# Assays:
# [1] = target: T1, human Cereblon WT GST-tagged protein (Homo sapiens, UniProt Q96SW2); assay: CRBN-binding affinity, HTRF (CEREBLON BINDING kit); conditions: CRBN binding, HTRF, 3 hours at room temperature; read-out: HTRF IC50
# T1 construct: purchased CISBIO 64BDCRBNPEH
# GSPT1 = assay: Western blot, degradation of substrate protein in hPBMCs; type: cell-based, Human
# Procedure: (§1) Conventional Western blot assay was performed to evaluate the effects of the compounds of the present disclosure on the expression of target proteins in cells. • (1) Cell Seeding and Protein Harvesting: Human peripheral blood mononuclear cells (hPBMCs) at a density of 1×10^6 cells/mL were thawed according to the PBMC Recovery Protocol (Milecell Biotechnologies Inc, Shanghai). […] After 24 hours of compounds treatment, cells were harvested and lysed in RIPA protein lysate containing protease inhibitors on ice for 30 min, followed by centrifugation. The supernatant was aspirated as the extracted total cell protein. The protein concentration of the supernatant was determined using the conventional BCA (Bicinchoninic Acid) assay. • (2) To the collected supernatant, 5X SDS sample loading buffer was added, followed by denaturation at 95°C for 5 minutes. The denatured samples were then separated by SDS-PAGE electrophoresis on a polyacrylamide gel, transferred onto a nitrocellulose membrane (0.45 µm NC membrane), blocked with blocking buffer at room temperature for 1 hour, and subjected to antibody incubation and development procedures according to the antibody manufacturer's instructions (Cell Signaling Technology Company).
# (§2) Half-Maximal Degradation Concentration value (the drug concentration required for degrading proteins by 50%, abbreviated as DC50) reads method: comparing the grayscale values of Western blot bands from drug-treated samples with those from blank DMSO-treated controls, and identifying the drug concentration range at which the grayscale value is half that of the DMSO-treated control bands.
# (§3) DC50 values can be calculated using ImageJ software to measure grayscale values of Western blot bands from drug-treated samples. The concentration-response curve is fitted to estimate the drug concentration corresponding to half the grayscale value.
# (§4) Target protein remaining (%) refers to the percentage of target protein remaining in cells after treatment with protein degrader compounds.
# (§5) Calculation method for target protein remaining (%): Use ImageJ software to measure grayscale values of Western blot bands from drug (protein degrader)-treated samples. The grayscale value of drug-treated bands is divided by that of internal control protein bands, and the resulting quotient is normalized to obtain the relative percentage of remaining target protein after protein degrader treatment.
# (§6) Target protein degradation rate (%) = 1−target protein remaining (%). [formula]
# IKZF2 = target: T2, IKZF2 (Homo sapiens, UniProt Q96SW2+Q9UKS7); assay: as above; type: cell-based
# T2 construct: effects of the compounds of the present disclosure on the expression of target proteins in cells; endogenous in cells; host or cells: human PBMCs (Milecell Biotechnologies)
# T2 sequence (Q9UKS7 whole entry): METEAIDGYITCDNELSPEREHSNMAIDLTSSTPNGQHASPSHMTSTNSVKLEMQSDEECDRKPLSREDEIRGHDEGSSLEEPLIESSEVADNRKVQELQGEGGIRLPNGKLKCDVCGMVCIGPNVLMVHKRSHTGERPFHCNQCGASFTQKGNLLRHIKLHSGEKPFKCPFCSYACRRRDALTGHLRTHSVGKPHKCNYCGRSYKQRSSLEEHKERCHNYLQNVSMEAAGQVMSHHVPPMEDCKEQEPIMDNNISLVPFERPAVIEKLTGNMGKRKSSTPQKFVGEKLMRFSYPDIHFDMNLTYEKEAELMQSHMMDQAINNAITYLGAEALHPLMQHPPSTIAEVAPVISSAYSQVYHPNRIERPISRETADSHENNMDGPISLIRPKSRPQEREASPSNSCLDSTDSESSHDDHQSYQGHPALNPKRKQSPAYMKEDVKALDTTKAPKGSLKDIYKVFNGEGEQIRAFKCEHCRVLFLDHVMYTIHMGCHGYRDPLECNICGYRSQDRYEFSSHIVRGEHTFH
# T2 sequence (Q96SW2 whole entry): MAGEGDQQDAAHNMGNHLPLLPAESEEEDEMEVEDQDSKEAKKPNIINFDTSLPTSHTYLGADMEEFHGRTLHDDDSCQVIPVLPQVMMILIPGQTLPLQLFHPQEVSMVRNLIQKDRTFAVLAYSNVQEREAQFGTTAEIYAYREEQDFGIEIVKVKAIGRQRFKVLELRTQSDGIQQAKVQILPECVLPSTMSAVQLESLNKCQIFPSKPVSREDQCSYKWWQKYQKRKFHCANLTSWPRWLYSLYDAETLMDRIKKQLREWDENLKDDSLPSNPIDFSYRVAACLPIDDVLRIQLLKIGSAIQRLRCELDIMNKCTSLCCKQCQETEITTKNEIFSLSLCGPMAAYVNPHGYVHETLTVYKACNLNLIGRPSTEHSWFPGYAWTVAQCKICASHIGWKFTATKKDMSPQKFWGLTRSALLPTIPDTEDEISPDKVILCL
# T2 sequence (Q16531 whole entry partner): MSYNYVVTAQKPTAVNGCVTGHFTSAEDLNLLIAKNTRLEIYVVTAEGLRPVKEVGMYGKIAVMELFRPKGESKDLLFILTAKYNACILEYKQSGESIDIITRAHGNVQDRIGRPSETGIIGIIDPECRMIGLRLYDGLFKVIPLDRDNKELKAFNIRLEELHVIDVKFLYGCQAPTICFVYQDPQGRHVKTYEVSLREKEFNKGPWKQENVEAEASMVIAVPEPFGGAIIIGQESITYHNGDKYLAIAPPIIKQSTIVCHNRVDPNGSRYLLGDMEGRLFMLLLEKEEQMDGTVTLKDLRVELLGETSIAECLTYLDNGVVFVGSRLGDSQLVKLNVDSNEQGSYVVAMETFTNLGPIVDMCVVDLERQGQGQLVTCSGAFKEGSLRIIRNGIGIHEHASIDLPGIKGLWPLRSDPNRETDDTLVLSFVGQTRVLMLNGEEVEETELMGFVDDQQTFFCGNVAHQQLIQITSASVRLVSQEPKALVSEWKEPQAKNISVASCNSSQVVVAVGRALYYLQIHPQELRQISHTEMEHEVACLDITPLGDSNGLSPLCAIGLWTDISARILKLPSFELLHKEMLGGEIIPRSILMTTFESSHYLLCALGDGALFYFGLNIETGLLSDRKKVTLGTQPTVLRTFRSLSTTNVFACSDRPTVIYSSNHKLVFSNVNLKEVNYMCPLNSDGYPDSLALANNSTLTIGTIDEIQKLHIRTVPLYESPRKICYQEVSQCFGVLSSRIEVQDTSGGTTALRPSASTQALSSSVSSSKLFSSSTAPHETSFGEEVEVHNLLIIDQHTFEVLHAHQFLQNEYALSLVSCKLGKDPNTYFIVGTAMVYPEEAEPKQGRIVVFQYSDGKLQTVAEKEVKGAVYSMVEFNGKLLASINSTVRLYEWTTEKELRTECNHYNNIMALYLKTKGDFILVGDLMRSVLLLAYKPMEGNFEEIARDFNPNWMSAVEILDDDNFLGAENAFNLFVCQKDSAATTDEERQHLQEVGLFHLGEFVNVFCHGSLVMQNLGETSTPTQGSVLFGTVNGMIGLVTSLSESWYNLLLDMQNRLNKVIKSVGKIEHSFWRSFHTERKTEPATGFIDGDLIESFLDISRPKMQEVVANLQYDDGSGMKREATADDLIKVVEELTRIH
# Procedure: as §1, §2, §3, §4, §5, §6
# IKZF1 = target: T3, IKZF1 (Homo sapiens, UniProt Q13422+Q96SW2); assay: as above; type: cell-based
# T3 construct: effects of the compounds of the present disclosure on the expression of target proteins in cells; endogenous in cells; host or cells: human PBMCs (Milecell Biotechnologies)
# T3 sequence (Q13422 whole entry): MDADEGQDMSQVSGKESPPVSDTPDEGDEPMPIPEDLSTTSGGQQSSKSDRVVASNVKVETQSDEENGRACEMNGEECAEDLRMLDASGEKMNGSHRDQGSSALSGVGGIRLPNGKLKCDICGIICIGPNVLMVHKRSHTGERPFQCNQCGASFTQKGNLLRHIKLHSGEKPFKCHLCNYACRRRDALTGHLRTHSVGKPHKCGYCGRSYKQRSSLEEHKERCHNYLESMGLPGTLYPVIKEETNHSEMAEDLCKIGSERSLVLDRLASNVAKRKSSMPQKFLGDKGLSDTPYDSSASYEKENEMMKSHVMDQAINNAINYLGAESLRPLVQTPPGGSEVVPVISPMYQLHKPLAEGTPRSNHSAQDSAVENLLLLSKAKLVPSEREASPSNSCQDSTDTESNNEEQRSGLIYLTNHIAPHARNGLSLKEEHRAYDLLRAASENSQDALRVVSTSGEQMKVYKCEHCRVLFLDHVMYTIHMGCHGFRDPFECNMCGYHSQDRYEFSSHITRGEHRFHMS
# T3 sequence (Q96SW2 whole entry): as the sequence (Q96SW2 whole entry) above
# T3 sequence (Q16531 whole entry partner): as the sequence (Q16531 whole entry partner) above
# Procedure: as §1, §2, §3, §4, §5, §6
# WEE1 = target: T4, WEE1 (Homo sapiens, UniProt P30291+Q96SW2); assay: as above; type: cell-based
# T4 construct: effects of the compounds of the present disclosure on the expression of target proteins in cells; endogenous in cells; host or cells: human PBMCs (Milecell Biotechnologies)
# T4 sequence (P30291 whole entry): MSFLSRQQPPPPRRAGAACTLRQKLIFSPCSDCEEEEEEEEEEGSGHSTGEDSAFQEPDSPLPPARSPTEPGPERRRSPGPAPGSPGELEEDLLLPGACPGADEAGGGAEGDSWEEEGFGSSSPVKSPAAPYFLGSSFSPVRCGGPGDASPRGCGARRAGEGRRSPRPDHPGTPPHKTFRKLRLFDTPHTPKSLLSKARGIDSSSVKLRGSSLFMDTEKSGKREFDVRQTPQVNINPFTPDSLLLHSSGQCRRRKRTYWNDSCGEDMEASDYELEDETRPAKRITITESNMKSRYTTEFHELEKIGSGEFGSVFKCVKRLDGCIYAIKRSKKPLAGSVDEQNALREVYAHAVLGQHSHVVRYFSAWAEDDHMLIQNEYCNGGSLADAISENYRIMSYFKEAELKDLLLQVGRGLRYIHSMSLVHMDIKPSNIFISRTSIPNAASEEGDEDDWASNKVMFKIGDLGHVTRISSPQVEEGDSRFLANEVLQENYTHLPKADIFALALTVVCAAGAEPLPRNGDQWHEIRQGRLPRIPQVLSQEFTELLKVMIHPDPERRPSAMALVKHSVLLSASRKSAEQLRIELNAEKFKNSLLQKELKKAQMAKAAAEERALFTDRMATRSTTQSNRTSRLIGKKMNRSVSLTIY
# T4 sequence (Q96SW2 whole entry): as the sequence (Q96SW2 whole entry) above
# T4 sequence (Q16531 whole entry partner): as the sequence (Q16531 whole entry partner) above
# Procedure: as §1, §2, §3, §4, §5, §6
# IKZF3 = target: T5, IKZF3 (Homo sapiens, UniProt Q96SW2+Q9UKT9); assay: as above; type: cell-based
# T5 construct: effects of the compounds of the present disclosure on the expression of target proteins in cells; endogenous in cells; host or cells: human PBMCs (Milecell Biotechnologies)
# T5 sequence (Q9UKT9 whole entry): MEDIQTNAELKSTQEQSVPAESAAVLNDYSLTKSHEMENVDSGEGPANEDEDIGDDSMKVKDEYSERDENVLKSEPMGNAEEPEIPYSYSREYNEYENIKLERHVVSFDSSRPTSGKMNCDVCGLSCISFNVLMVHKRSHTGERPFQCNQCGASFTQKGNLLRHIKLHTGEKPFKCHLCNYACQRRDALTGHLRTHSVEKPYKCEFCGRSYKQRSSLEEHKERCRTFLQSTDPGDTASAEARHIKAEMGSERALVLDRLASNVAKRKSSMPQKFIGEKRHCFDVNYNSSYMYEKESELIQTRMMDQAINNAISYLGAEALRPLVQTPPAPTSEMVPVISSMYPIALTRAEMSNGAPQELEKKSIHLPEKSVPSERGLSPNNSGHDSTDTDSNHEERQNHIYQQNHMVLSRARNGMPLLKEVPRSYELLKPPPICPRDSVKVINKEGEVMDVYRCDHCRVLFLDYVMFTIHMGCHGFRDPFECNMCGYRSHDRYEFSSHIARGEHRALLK
# T5 sequence (Q96SW2 whole entry): as the sequence (Q96SW2 whole entry) above
# T5 sequence (Q16531 whole entry partner): as the sequence (Q16531 whole entry partner) above
# Procedure: as §1, §2, §3, §4, §5, §6
# CK1α = target: T6, CK1α (Homo sapiens, UniProt P48729+Q96SW2); assay: as above; type: cell-based
# T6 construct: effects of the compounds of the present disclosure on the expression of target proteins in cells; endogenous in cells; host or cells: human PBMCs (Milecell Biotechnologies)
# T6 sequence (P48729 whole entry): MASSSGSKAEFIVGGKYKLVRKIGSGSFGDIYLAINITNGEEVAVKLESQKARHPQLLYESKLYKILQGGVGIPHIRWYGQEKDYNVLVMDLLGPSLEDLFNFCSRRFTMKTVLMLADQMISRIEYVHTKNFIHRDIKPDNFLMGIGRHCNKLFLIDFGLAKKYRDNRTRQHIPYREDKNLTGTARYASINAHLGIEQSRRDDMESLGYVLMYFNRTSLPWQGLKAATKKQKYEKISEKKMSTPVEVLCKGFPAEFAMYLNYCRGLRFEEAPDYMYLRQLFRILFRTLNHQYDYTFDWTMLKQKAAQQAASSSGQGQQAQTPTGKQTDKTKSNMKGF
# T6 sequence (Q96SW2 whole entry): as the sequence (Q96SW2 whole entry) above
# T6 sequence (Q16531 whole entry partner): as the sequence (Q16531 whole entry partner) above
# Procedure: as §1, §2, §3, §4, §5, §6
# [2] = 24 hours treatment, compounds at 50 nM and 500 nM (concentration behind the class not stated)
# [3] = Western blot, 24 hours of compound treatment, compounds tested at 50 nM and 500 nM (concentration for the table not stated)
# T1 sequence (Q96SW2 whole entry): as the sequence (Q96SW2 whole entry) above
SMILES,IC50 [1] [nM],GSPT1 substrate protein remaining % (GSPT1; [2]),IKZF2 substrate protein remaining % (IKZF2; [2]),IKZF 1 substrate protein remaining % (IKZF1; [2]),Wee1 substrate protein remaining % (WEE1; [2]),IKZF3 substrate protein remaining % (IKZF3; [2]),CK1α substrate protein remaining % (CK1α; [2]),GSPT1 substrate protein remaining % (GSPT1; [3]),IKZF2 substrate protein remaining % (IKZF2; [3]),IKZF 1 substrate protein remaining % (IKZF1; [3]),Wee1 substrate protein remaining % (WEE1; [3]),IKZF3 substrate protein remaining % (IKZF3; [3]),CK1α substrate protein remaining % (CK1α; [3])
"O=C1CCC(N2Cc3c(CN4CCC(c5noc6cc(F)ccc56)CC4)cccc3C2=S)C(=O)N1 (centres unmarked) [GT-04997, 3-(4-((4-(6-fluorobenzo[d]isoxazol-3-yl)piperidin-1-yl)methyl)-1-thioxoisoindolin-2-yl)piperidine-2,6-dione]",100 to 500,B (80%< substrate protein remaining %≤ 100%),B (80%< substrate protein remaining %≤ 100%),B (80%< substrate protein remaining %≤ 100%),A (0% ≤ substrate protein remaining % ≤ 80%),B (80%< substrate protein remaining %≤ 100%),B (80%< substrate protein remaining %≤ 100%),–,–,–,–,–,–
"O=C1CCC(N2Cc3ccc(CN4CCC(c5noc6cc(F)ccc56)CC4)cc3C2=S)C(=O)N1 (centres unmarked) [GT-05031, 3-(6-((4-(6-fluorobenzo[d]isoxazol-3-yl)piperidin-1-yl)methyl)-1-thioxoisoindolin-2-yl)piperidine-2,6-dione]",100 to 500,A (0% ≤ substrate protein remaining % ≤ 80%),B (80%< substrate protein remaining %≤ 100%),B (80%< substrate protein remaining %≤ 100%),B (80%< substrate protein remaining %≤ 100%),A (0% ≤ substrate protein remaining % ≤ 80%),B (80%< substrate protein remaining %≤ 100%),–,–,–,–,–,–
"O=C1CCC(N2Cc3c(CN4CC=C(c5cccc(Cl)c5Cl)CC4)cccc3C2=S)C(=O)N1 (centres unmarked) [GT-08270, 3-(4-((4-(2,3-dichlorophenyl)-3,6-dihydropyridin-1(2H)-yl)methyl)-1-thioxoisoindolin-2-yl)piperidine-2,6-dione]",–,–,–,–,–,–,–,A (0% ≤ substrate protein remaining % ≤ 80%),B (80%< substrate protein remaining %≤ 100%),B (80%< substrate protein remaining %≤ 100%),A (0% ≤ substrate protein remaining % ≤ 80%),B (80%< substrate protein remaining %≤ 100%),B (80%< substrate protein remaining %≤ 100%)
"O=C1CCC(N2Cc3c(CN4CCC(c5cccc(F)c5Cl)CC4)cccc3C2=S)C(=O)N1 (centres unmarked) [GT-08321, 3-(4-((4-(2-chloro-3-fluorophenyl)piperidin-1-yl)methyl)-1-thioxoisoindolin-2-yl)piperidine-2,6-dione]",–,B (80%< substrate protein remaining %≤ 100%),B (80%< substrate protein remaining %≤ 100%),B (80%< substrate protein remaining %≤ 100%),A (0% ≤ substrate protein remaining % ≤ 80%),A (0% ≤ substrate protein remaining % ≤ 80%),B (80%< substrate protein remaining %≤ 100%),–,–,–,–,–,–
"O=C1CCC(N2Cc3c(CN4CCC(c5nccc(Cl)c5Cl)CC4)cccc3C2=S)C(=O)N1 (centres unmarked) [GT-08457, 3-(4-((4-(3,4-dichloropyridin-2-yl)piperidin-1-yl)methyl)-1-thioxoisoindolin-2-yl)piperidine-2,6-dione]",–,–,–,–,–,–,–,B (80%< substrate protein remaining %≤ 100%),B (80%< substrate protein remaining %≤ 100%),B (80%< substrate protein remaining %≤ 100%),A (0% ≤ substrate protein remaining % ≤ 80%),B (80%< substrate protein remaining %≤ 100%),B (80%< substrate protein remaining %≤ 100%)
"Cc1ccccc1N1CCN(Cc2cccc3c2CN(C2CCC(=O)NC2=O)C3=S)CC1 (centres unmarked) [GT-08497, 3-(1-thioxo-4-((4-(o-tolyl)piperazin-1-yl)methyl)isoindolin-2-yl)piperidine-2,6-dione]",–,–,–,–,–,–,–,A (0% ≤ substrate protein remaining % ≤ 80%),A (0% ≤ substrate protein remaining % ≤ 80%),A (0% ≤ substrate protein remaining % ≤ 80%),A (0% ≤ substrate protein remaining % ≤ 80%),B (80%< substrate protein remaining %≤ 100%),B (80%< substrate protein remaining %≤ 100%)
"O=C1CCC(N2Cc3c(CN4CCN(c5ccc(C(F)(F)F)cn5)CC4)cccc3C2=S)C(=O)N1 (centres unmarked) [GT-08702, 3-(1-thioxo-4-((4-(5-(trifluoromethyl)pyridin-2-yl)piperazin-1-yl)methyl)isoindolin-2-yl)piperidine-2,6-dione]",–,–,–,–,–,–,–,B (80%< substrate protein remaining %≤ 100%),B (80%< substrate protein remaining %≤ 100%),B (80%< substrate protein remaining %≤ 100%),A (0% ≤ substrate protein remaining % ≤ 80%),B (80%< substrate protein remaining %≤ 100%),B (80%< substrate protein remaining %≤ 100%)
"O=C1CCC(N2Cc3c(CN4CCN(c5c(Cl)ccnc5Cl)CC4)cccc3C2=S)C(=O)N1 (centres unmarked) [GT-08725, 3-(4-((4-(2,4-dichloropyridin-3-yl)piperazin-1-yl)methyl)-1-thioxoisoindolin-2-yl)piperidine-2,6-dione]",–,–,–,–,–,–,–,A (0% ≤ substrate protein remaining % ≤ 80%),B (80%< substrate protein remaining %≤ 100%),B (80%< substrate protein remaining %≤ 100%),A (0% ≤ substrate protein remaining % ≤ 80%),B (80%< substrate protein remaining %≤ 100%),B (80%< substrate protein remaining %≤ 100%)
"CC(C)c1cc2c(N3CCN(Cc4cccc5c4CN(C4CCC(=O)NC4=O)C5=S)CC3)ncnc2s1 (centres unmarked) [GT-08915, 3-(4-((4-(6-isopropylthieno[2,3-d]pyrimidin-4-yl)piperazin-1-yl)methyl)-1-thioxoisoindolin-2-yl)piperidine-2,6-dione]",–,B (80%< substrate protein remaining %≤ 100%),B (80%< substrate protein remaining %≤ 100%),B (80%< substrate protein remaining %≤ 100%),A (0% ≤ substrate protein remaining % ≤ 80%),B (80%< substrate protein remaining %≤ 100%),B (80%< substrate protein remaining %≤ 100%),–,–,–,–,–,–
"Cc1csc2ncnc(C3=CCN(Cc4cccc5c4CN(C4CCC(=O)NC4=O)C5=S)CC3)c12 (centres unmarked) [GT-08938, 3-(4-((4-(5-methylthieno[2,3-d]pyrimidin-4-yl)-3,6-dihydropyridin-1(2H)-yl)methyl)-1-thioxoisoindolin-2-yl)piperidine-2,6-dione]",–,B (80%< substrate protein remaining %≤ 100%),B (80%< substrate protein remaining %≤ 100%),B (80%< substrate protein remaining %≤ 100%),A (0% ≤ substrate protein remaining % ≤ 80%),B (80%< substrate protein remaining %≤ 100%),B (80%< substrate protein remaining %≤ 100%),–,–,–,–,–,–
